Where two headings read alike, the source gives them in different places.
Tests used:
[1] = system: Capan-1; experiment: Cell survival assay (SRB), Capan-1; format: cell-based; conditions: Homo sapiens
Method: (§1) 2.2. Cell Survival Assay: Standard Pharmacological Test Procedure. […] Compounds are incubated with cells for 3 days.

[2] = system: S1-M1-3.2 (MXR); experiment: Cell survival assay, S1-M1-3.2 (MXR); format: cell-based, human; conditions: for IC50: Homo sapiens, read-out: S1-M1-3.2 (MXR) IC50, nM (N)
Description: (§2) Cells lines with previously known mechanisms of resistance. […] Res. 8: 207-218,1996); KB-3-1 (parental derived from an epidermoid carcinoma), KB-8.5, KB-V1 (Akiyama S-I, Fojo A, Hanover J A, Pastan I, Gottesman M M. Isolation and genetic characterization of human KB cell lines resistant to multiple drugs. Somatic Cell Mol. Gen., 11: 117-126,1985; Shen D-W, Cardarelli C, Hwang J, Cornwell M, Richert N, Ishii S, Pastan I, Gottesman MM. […] J. Biol. Chem., 261: 7762-7770, 1986); and HL-60 (parental derived from human leukemia) and HL60/AR (McGrath T., Center M. S. Adriamycin resistance in HL60 cells in the absence of detectable P-glycoprotein. Biochem. Res. Commun., 145:1171-1176,1987); A549 and A549.EpoB40 (He L., Yang C.-P.H., Horwitz S. B. Mutations in p-tubulin map to domains involved in regulation of microtubule stability in epothilone-resistant cell lines. Molecular Cancer Therapeutics. 1: 3-10, 2001). HCT-15 human colon carcinoma and DLD-1 human colon carcinoma are obtained from American Tissue Culture Collection. The MX-1W carcinoma is a Wyeth variant orginally obtained as MX-1 breast carcinoma from the National Cancer Institute. Cell lines selected for resistance to Representative Example 129. KB-3-1 cells are selected for resistance to Example 129 by chronically exposing cells to increasing concentrations of Example 129.
(§3) 2.2. Cell Survival Assay: Standard Pharmacological Test Procedure. The concentration of candidate inhibitor required to inhibit 50% of cell growth (IC50) is done according to previously reported methods. […] Compounds are serially diluted into media as 2× stocks and 100 μl added to cells in duplicate. Compounds are incubated with cells for 3 days. At the end of the incubation period the sulforhodamine B (SRB) assay, which measures protein content as an assessment of cell survival, is performed as described previously (Skehan P, Storeng R, Scudiero D, Monks A, McMahon J, Vistica D, Warren J T, Bokesch H, Kenney S, Boyd MR. New calorimetric cytotoxicity assay for anticancer-drug screening. J Natl Cancer Inst 1990 Jul 4;82(13):1107-12) with some modification as follows. For KB-3-1 cells with 20% FCS, media is gently decanted and replaced with 200 μl of serum-free media mixed with cold 50% TCA for a final concentration of 10% TCA. The plates are incubated for 1 hr at 4° C., followed by washing 5 times in cold distilled water, then air dried overnight. The fixed cells are stained for 10 min with 80 μl of 0.04% SRB solution prepared in 1% glacial acetic acid. Stain is discarded and plates washed 5 times in 1% glacial acetic acid, then air-dried until completely dry. Stained cell product is dissolved in 150 μl of 10 mM Trizma Base and placed on a shaker for 20 minutes until fully dissolved. Absorbance is read on a Victor V multi-label plate reader (Perkin Elmer, Gaithersburg, Md.).
J. Cell Science,113: 2011-2021, 2000). It was unknown whether the hemiasterlin family of peptides interact with these drug pumps.

[3] = system: MAP-associated tubulin; experiment: Polymerization of MAP-associated tubulin, cell-free spectrophotometric assay; format: biochemical
[4] = system: MDA-MB-435; experiment: Cell survival assay (SRB), MDA-MB-435; format: cell-based; conditions: Homo sapiens, 72 h; MDA-MB-435, breast; 3 days, SRB staining
Method: as §1

[5] = system: Panc1; experiment: Cell survival assay (SRB), Panc1; format: cell-based; conditions: Homo sapiens, PANC-1, 72 h
Method: as §1

[6] = system: SKBR3; experiment: Cell survival assay (SRB), SKBR3; format: cell-based; conditions: Homo sapiens, SK-BR-3, 72 h; SKBR3, breast; 3 days, SRB staining
Method: as §1

[7] = Mitotic arrest and apoptosis; format: cell-based; conditions: at 24 hr; followed by apoptosis (48 hr)
Method: d) induces mitotic arrest (3-10 nM at 24 hr) followed by apoptosis (48 hr),

[8] = system: cellular microtubules; experiment: Cellular microtubules by immunofluorescence microscopy; format: cell-based
[9] = system: DU145; experiment: Cell survival assay (SRB), DU145; format: cell-based; conditions: Homo sapiens, DU-145, 72 h; DU145, prostate; 3 days, SRB staining
Method: as §1

[10] = system: CX-1; experiment: Cell survival assay (SRB), CX-1; format: cell-based; conditions: Homo sapiens, 72 h; CX-1, colon; 3 days, SRB staining
Method: as §1

[11] = system: BxPC3; experiment: Cell survival assay (SRB), BxPC3; format: cell-based; conditions: Homo sapiens, BXPC-3, 72 h
Method: as §1

[12] = system: MCF7; experiment: Cell survival assay (SRB), MCF7; format: cell-based; conditions: Homo sapiens, MCF7, 72 h
Method: as §1

[13] = system: S1; experiment: Cell survival assay (SRB), S1; format: cell-based; conditions: Homo sapiens
Description: as §2, §3

[14] = system: HCT-15 tumor; experiment: Growth of tumors in nude mice, HCT-15 xenograft; format: in vivo; conditions: paclitaxel 60 mg/kg IV, days 1,5,9
Description: 2.4. Growth of Tumors in Nude Mice.

[15] = system: NCI-H838; experiment: Cell survival assay (SRB), NCI-H838; format: cell-based; conditions: Homo sapiens, 72 h; NCI-H838, NSCLC; 3 days, SRB staining
Method: as §1

CN[C@H](C(=O)N[C@H](C(=O)N(C)[C@H](/C=C(\C)C(=O)O)C(C)C)C(C)(C)C)C(C)(C)c1ccccc1 [Example 129, N,β,β-trimethyl-L-phenylalanyl-N^1-[(1S,2E)-3-carboxy-1-isopropylbut-2-enyl]-N^1,3-dimethyl-L-valinamide]
IC50 ([1]; CAPAN-1, 72 h): 1.4 nM
IC50 [2]: 4.8 ± 2.1 nM
RR, relative resistance ([2]; IC50 S1-M1-3.2 / IC50 S1): 1.3
polymerization of MAP-associated tubulin [3]: inhibitor of polymerization
IC50 [4]: 0.5 nM
IC50 [5]: 2.9 ± 0.1 nM
IC50 [6]: 2.3 nM
concentration that induces mitotic arrest [7]: 3 to 10 nM
effect on cellular microtubules [8]: depolymerizes cellular microtubules
IC50 [9]: 2 nM
IC50 [10]: 2.3 nM
IC50 [11]: 0.7 nM
IC50 [12]: 7.3 ± 2.3 nM
IC50 ([13]; 72 h): 3.7 ± 2 nM
IC50 ([13]; read-out: S1 IC50, nM (N)): 3.7 ± 2 nM

CC(=O)O[C@H]1C(=O)[C@@]2(C)[C@H]([C@H](OC(=O)c3ccccc3)[C@]3(O)C[C@H](OC(=O)[C@H](O)[C@@H](NC(=O)c4ccccc4)c4ccccc4)C(C)=C1C3(C)C)[C@]1(OC(C)=O)CO[C@@H]1C[C@@H]2O [paclitaxel, reference compound]
IC50 ([1]; 72 h, Capan-1, pancreatic, 3 days, SRB staining, read-out: IC50): 4 nM
IC50 ([2]; S1-M1-3.2, MXR over-expression, Table 5): 108 ± 88 nM
% T/C on day 9 [14]: 114%
% T/C on day 13 [14]: 106%
% T/C on day 17 [14]: 123%
% T/C on day 21 [14]: 110%
IC50 ([5]; Panc1, pancreatic, 3 days, SRB staining, read-out: IC50): 28.9 nM
IC50 [15]: 6.3 ± 0.6 nM
IC50 ([11]; BxPC3, pancreatic, 3 days, SRB staining, read-out: IC50): 10.8 nM
IC50 ([13]; 72 h, S1, colon, 3 days, SRB staining, read-out: IC50): 92 ± 100 nM
IC50 ([13]; S1 parental, Table 5, read-out: S1 IC50, nM (N)): 92 ± 100 nM

— patent US20040121965A1, “Method of treating resistant tumors” (Wyeth Holdings Corporation, priority 2002, published 2004)
